By MIC is commonly meant the least concentration at which growth counts as inhibited. In general, IC50 refers to the point on the concentration scale where inhibition reaches its midpoint.

Each structure is given as a SMILES string. Converted amounts (≈) assume the structure as drawn.

A short description of experiment [1]: Antibacterial activity against five Gram-negative bacteria. In kind it is functional.
The subject of a further experiment is V79. As to the kind of experiment: Mammalian cell cytotoxicity test in chinese hamster V79 cells (clonogenic cytotoxicity). Format: functional, cell-based.
The mark [2] stands for this setting: Cricetulus griseus, V79, read-out: IC50.

Consider `NC1CCN(c2c(F)cc3c(=O)c(C(=O)O)cn(C4CC4)c3c2Cl)C1` (stereo in doubt; 24c) [CLINAFLOXACIN], for which the MIC in experiment [1] (read-out: MIC) came to 0.03 mg/L (≈ 0.082 µM). Also, in the experiment with V79 (setting [2]), the concentration for half-maximal inhibition (IC50) worked out at 26 mg/L (≈ 71.1 µM).
`CC1(CN)CCN(c2c(F)cc3c(=O)c(C(=O)O)cn(C4CC4)c3c2Cl)C1` (configuration not stated): in experiment [1] (read-out: MIC), the MIC is 0.07 mg/L (≈ 0.178 µM). In addition, in the experiment on V79 (setting [2]), the IC50 was determined as 8 mg/L (≈ 20.3 µM).
For the compound `COc1c(N2CCC(N)C2)c(F)cc2c(=O)c(C(=O)O)cn(C3CC3)c12` (stereo in doubt; 24d), the MIC in experiment [1] (read-out: MIC) turned out to be 0.07 mg/L (≈ 0.194 µM). Besides, the IC50 with V79 (v79) was 45 mg/L (≈ 125 µM).
For the compound `NC1CCN(c2cc3c(cc2F)c(=O)c(C(=O)O)cn3C2CC2)CC1`, the MIC in experiment [1] (read-out: MIC) came out at 0.26 mg/L (≈ 0.753 µM). Further, in the experiment with V79 (setting [2]), the IC50 amounted to 230 mg/L (≈ 666 µM).
As for `CCNCC1CCN(c2c(F)cc3c(=O)c(C(=O)O)cn(NC)c3c2F)C1` (configuration not stated), the MIC in experiment [1] (read-out: MIC) came to 0.26 mg/L (≈ 0.684 µM). The IC50 with V79 (setting [2]) is more than 500 mg/L.
For `Nc1c(F)c(N2CCC(N)C2)c(Cl)c2c1c(=O)c(C(=O)O)cn2C1CC1` (configuration not stated), in that order: 0.08 mg/L (≈ 0.21 µM) and 59 mg/L (≈ 155 µM).
Consider `CCNCC1CCN(c2c(F)cc3c(=O)c(C(=O)O)cn(C4CC4)c3c2C(F)(F)F)C1` (configuration not stated), for which, in experiment [1] (read-out: MIC), the MIC was found to be 0.6 mg/L (≈ 1.36 µM). Further, in the experiment on V79 (setting [2]), the IC50 is 120 mg/L (≈ 272 µM).
Consider `CCNCC1CCN(c2c(F)cc3c(=O)c(C(=O)O)cn(C4CC4)c3c2F)C1` (stereo in doubt; 12) [PD-117558], for which the MIC in experiment [1] (read-out: MIC) came to 0.05 mg/L (≈ 0.128 µM). In the experiment on V79 (setting [2]), the IC50 was found to be 11 mg/L (≈ 28.1 µM).
For the compound `CCn1cc(C(=O)O)c(=O)c2cc(F)c(N3CCNCC3)cc21` [NORFLOXACIN], in experiment [1] (read-out: MIC), the MIC is 0.06 mg/L (≈ 0.188 µM). Also, in the experiment on V79 (setting [2]), the IC50 is more than 500 mg/L.
Regarding `O=C(O)c1cn(C2CC2)c2c(F)c(N3CCNCC3)c(F)cc2c1=O`, the MIC in experiment [1] (read-out: MIC) was found to be 0.07 mg/L (≈ 0.2 µM). Further, in the experiment on V79 (setting [2]), the IC50 is 47 mg/L (≈ 135 µM).
With `NCC1CCN(c2c(F)cc3c(=O)c(C(=O)O)cn(C4CC4)c3c2C(F)(F)F)C1` (configuration not stated), the MIC in experiment [1] (read-out: MIC) was 0.52 mg/L (≈ 1.26 µM). Besides, the half-inhibitory concentration (IC50) in the experiment with V79 (setting [2]) came out at 38 mg/L (≈ 91.9 µM).
Turning to `NC1CCCN(c2c(F)cc3c(=O)c(C(=O)O)cn(C4CC4)c3c2Cl)C1` (configuration not stated), in experiment [1] (read-out: MIC), the MIC was 0.07 mg/L (≈ 0.184 µM). Further, the half-inhibitory concentration (IC50) in the experiment with V79 (setting [2]) was found to be 24 mg/L (≈ 63.2 µM).
As to `O=C(O)c1cn(C2CC2)c2nc(N3CCCC3)c(F)cc2c1=O`, the minimal inhibitory concentration (MIC) in experiment [1] (read-out: MIC) stood at 0.26 mg/L (≈ 0.819 µM). Moreover, in the experiment on V79 (setting [2]), the half-inhibitory concentration (IC50) stood at 58 mg/L (≈ 183 µM).
Taken in the same sequence, the figures for `CCNCC1CCN(c2c(F)c(NC)c3c(=O)c(C(=O)O)cn(C4CC4)c3c2F)C1` (configuration not stated) were 0.69 mg/L (≈ 1.64 µM) and 53 mg/L (≈ 126 µM).
Taken in the same sequence, the figures for `NC1CCCN(c2cc3c(cc2F)c(=O)c(C(=O)O)cn3C2CC2)C1` (configuration not stated) were 0.91 mg/L (≈ 2.63 µM) and more than 500 mg/L.
Taken in the same sequence, the figures for `Cc1c(F)c(N2CCC(N)C2)c(F)c2c1c(=O)c(C(=O)O)cn2C1CC1` (configuration not stated) were 0.02 mg/L (≈ 0.055 µM) and 11 mg/L (≈ 30.3 µM).
Turning to `CC1(N)CCN(c2c(F)cc3c(=O)c(C(=O)O)cn(-c4ccc(F)cc4F)c3c2C(F)(F)F)C1` (configuration not stated), the minimal inhibitory concentration (MIC) in experiment [1] (read-out: MIC) worked out at 2.07 mg/L (≈ 4.26 µM). The half-inhibitory concentration (IC50) with V79 (setting [2]) was 18 mg/L (≈ 37.1 µM).
For `NCC1CCN(c2nc3c(cc2F)c(=O)c(C(=O)O)cn3C2CC2)C1` (configuration not stated), in that order: 0.14 mg/L (≈ 0.404 µM) and 51 mg/L (≈ 147 µM).
With `NC1CCN(c2c(F)cc3c(=O)c(C(=O)O)cn(-c4ccc(F)cc4F)c3c2Cl)C1` (configuration not stated), in experiment [1] (read-out: MIC), the MIC worked out at 0.23 mg/L (≈ 0.525 µM). Besides, the IC50 in the experiment with V79 (setting [2]) came out at 89 mg/L (≈ 203 µM).
For `O=C(O)c1cn(C2CC2)c2cc(N3CCCC3)c(F)cc2c1=O`, in that order: 0.2 mg/L (≈ 0.632 µM) and 38 mg/L (≈ 120 µM).
As to `NC1CCN(c2c(F)cc3c(=O)c(C(=O)O)cn(-c4ccc(F)cc4F)c3c2C(F)(F)F)C1` (configuration not stated), the MIC in experiment [1] (read-out: MIC) is 0.52 mg/L (≈ 1.1 µM). Also, the half-maximal inhibitory concentration (IC50) with V79 (setting [2]) was found to be 99 mg/L (≈ 210 µM).
Turning to `CCNCC1CCN(c2c(F)c(NC(C)=O)c3c(=O)c(C(=O)O)cn(C4CC4)c3c2F)C1` (configuration not stated), the MIC in experiment [1] (read-out: MIC) was more than 25 mg/L. For the same compound, in the experiment on V79 (setting [2]), the IC50 is more than 500 mg/L.
As to `CC1(CN)CCN(c2c(F)cc3c(=O)c(C(=O)O)cn(C4CC4)c3c2C(F)(F)F)C1` (configuration not stated), the MIC in experiment [1] (read-out: MIC) was found to be 1 mg/L (≈ 2.34 µM). For the same compound, in the experiment on V79 (setting [2]), the 50% inhibitory concentration (IC50) worked out at 110 mg/L (≈ 257 µM).
For `CCNCC1CCN(c2c(F)cc3c(=O)c(C(=O)O)cn(CC)c3c2F)C1` (configuration not stated) [MERAFLOXACIN], in that order: 0.2 mg/L (≈ 0.527 µM) and 160 mg/L (≈ 422 µM).
As to `O=C(O)c1cn(C2CC2)c2cc(N3CCNCC3)c(F)cc2c1=O` [CIPROFLOXACIN], the minimal inhibitory concentration (MIC) in experiment [1] and in experiment [1] (read-out: MIC) was 0.1 mg/L (≈ 0.302 µM) in each case. Also, the IC50 with V79 (setting [2]) and in the experiment on V79 (v79) was 380 mg/L (≈ 1150 µM) throughout.
